Experimental data published in patent publication US5079241A, “Cephalosporin derivatives and pharmaceutical compositions in which they are present” (Sanofi, priority 1987, dated 1992).
≈ marks a conversion by molar mass, not a printed value. Read-outs that look alike come from different tables or passages of the source.

Tests used:
Staph. aureus Smith = assay: bacteriostatic action in vitro by the dilution method (MIC); assay type: cell-based; settings: Staphylococcus aureus, read-out: minimum inhibitory concentrations (MIC)
Method: (§1) The bacteriostatic action was determined in vitro by the dilution method. The study was carried out on both Gram-positive strains and Gram-negative strains.
(§2) The results for various products according to the invention, expressed as minimum inhibitory concentrations (MIC - μg/ml), are collated in Table 3.

Providencia 155 = assay: as above; assay type: cell-based; settings: read-out: minimum inhibitory concentrations (MIC)
Method: as §1, §2

[1] = test system: Proteus vulgaris GN 76/C-1; assay: as above; assay type: cell-based; settings: GN76, read-out: minimum inhibitory concentrations (MIC)
Method: as §1, §2

[2] = test system: Klebsiella pneumoniae R30; assay: as above; assay type: cell-based; settings: read-out: minimum inhibitory concentrations (MIC)
Method: as §1, §2

[3] = test system: Escherichia coli C1/Col E1::Tn3; assay: as above; assay type: cell-based; settings: read-out: minimum inhibitory concentrations (MIC)
Method: as §1, §2

[4] = test system: Escherichia coli SOL RL 90; assay: as above; assay type: cell-based; settings: SOLRL90, read-out: minimum inhibitory concentrations (MIC)
Method: as §1, §2

[5] = test system: Pseudomonas aeruginosa NCTC 8203; assay: as above; assay type: cell-based; settings: NCTC8203, read-out: minimum inhibitory concentrations (MIC)
Method: as §1, §2

[6] = protein binding by comparing two standard scales in baboon plasma and phosphate buffer; assay type: in vitro ADME; settings: baboon plasma vs phosphate buffer (pH 7, 0.03M)
Excerpt: Furthermore, the protein binding is obtained by comparing two standard scales, one being prepared in baboon plasma and the other in phosphate buffer (pH 7, 0.03M).

[7] = pharmacokinetic behavior in baboons, 20 mg/kg (Tables 4 and 6); assay type: in vivo; settings: baboon; for Cmax: read-out: Max plasma concentration; for AUC(0-t) at 6 h: trapezium method; for concentration at 0.5 h: 30 minutes; for concentration at 0.75 h: 45 minutes; for concentration at 1 h: 60 minutes; for concentration at 1.5 h: 90 minutes; for concentration at 2 h: 120 minutes; for concentration at 3 h: 180 minutes; for concentration at 4 h: 240 minutes; for concentration at 5 h: 300 minutes; for dose excreted at 6 h: urine, 6 h (Table 6), read-out: Excretion in the urine
Method: Furthermore, the pharmacokinetic behavior of the products according to the invention was studied in baboons after administration at a dose of 20 mg/kg by intramuscular injection or intravenous injection.
Blood samples taken at various times after administration are used to determine the plasma concentration of the product studied by microbiological assay.
It is thus possible to construct the curve showing the plasma concentration as a function of time, and to determine different pharmacokinetic parameters of the compound studied:
the elimination half-life (t1/2 β) is calculated by the formula [formula] in which β represents the elimination gradient or slope;
the area under the curve (AUC) is determined by the trapezium method.
The plasma concentrations obtained with various products of the invention are collated in Tables 4 and 5. They are expressed in μg/ml.

[8] = plasma, 20 mg/kg, 20 mg/kg (Table 6), read-out: Plasma concentration at 6 h
[9] = plasma, 20 mg/kg, 360 minutes, read-out: plasma concentration

| SMILES | MIC (Staph. aureus Smith) [µg/mL] | MIC (Providencia 155) [µg/mL] | MIC [1] [µg/mL] | MIC [2] [µg/mL] | MIC [3] [µg/mL] | MIC [4] [µg/mL] | MIC [5] [µg/mL] | fraction unbound [6] | Tmax ([7]; plasma, 20 mg/kg (Table 6)) [h] | Cmax ([7]; plasma, 20 mg/kg (Table 6)) [µg/mL] | AUC(0-t) at 6 h ([7]; plasma, 20 mg/kg (Table 6)) [µg·h/mL] | concentration at 6 h [7, 8] [µg/mL] | concentration at 10 min ([7]; plasma, 20 mg/kg) [µg/mL] | concentration at 20 min ([7]; plasma, 20 mg/kg) [µg/mL] | concentration at 0.5 h ([7]; plasma, 20 mg/kg) [µg/mL] | concentration at 0.75 h ([7]; plasma, 20 mg/kg) [µg/mL] | concentration at 1 h ([7]; plasma, 20 mg/kg) [µg/mL] | concentration at 1.5 h ([7]; plasma, 20 mg/kg) [µg/mL] | concentration at 2 h ([7]; plasma, 20 mg/kg) [µg/mL] | concentration at 3 h ([7]; plasma, 20 mg/kg) [µg/mL] | also measured |
| --- | --- | --- | --- | --- | --- | --- | --- | --- | --- | --- | --- | --- | --- | --- | --- | --- | --- | --- | --- | --- | --- |
| CO/N=C(\C(=O)NC1C(=O)N2C(C(=O)O)=C(COC(=O)c3ccc(NC(=O)[C@@H](N)CCCN)c(O)c3)CSC12)c1csc(N)n1 (stereo partly shown) [SR 44219] | 0.5 (≈ 0.754 µM) | 1 (≈ 1.51 µM) | 16 (≈ 24.1 µM) | 4 (≈ 6.04 µM) | 0.12 (≈ 0.181 µM) | 0.12 (≈ 0.181 µM) | 1 (≈ 1.51 µM) | – | – | – | – | – | – | – | – | – | – | – | – | – | – |
| CC(C)(O/N=C(\C(=O)NC1C(=O)N2C(C(=O)O)=C(COC(=O)c3ccc(NC(=O)CN)c(O)c3)CSC12)c1csc(N)n1)C(=O)O (stereo not drawn) [SR 43753, Bis-trifluoroacetate of 7-2-(2-aminothiazol-4-yl)-2-(2-carboxyprop-2-yloxyimino)acetamido]-3-[[4-(2-aminoacetyl)amino-3-hydroxybenzoyloxymethyl]-3-cephem-4-carboxylic acid, syn isomer] | 2 (≈ 2.95 µM) | 1 (≈ 1.48 µM) | 0.12 (≈ 0.177 µM) | 1 (≈ 1.48 µM) | 0.12 (≈ 0.177 µM) | 2 (≈ 2.95 µM) | 2 (≈ 2.95 µM) | 0.16 | 2 | 151 | 703 | 80.9 | 36.8 | 69.1 | 95.2 | 129 | 139 | 146 | 151 | 126 | concentration at 4 h ([7]; plasma, 20 mg/kg): 121 µg/mL; concentration at 5 h ([7]; plasma, 20 mg/kg): 113 µg/mL; concentration at 5.5 h ([7]; plasma, 20 mg/kg, 330 minutes): 97.6 µg/mL; concentration at 6 h [7, 9]: 80.9 µg/mL; dose excreted at 6 h ([7]; 20 mg/kg): 18% |
| CO/N=C(\C(=O)NC1C(=O)N2C(C(=O)O)=C(COC(=O)c3ccc(NC(=O)CCN)c(O)c3)CSC12)c1csc(N)n1 (stereo not shown) [SR 43853] | 0.25 (≈ 0.403 µM) | 1 (≈ 1.61 µM) | 16 (≈ 25.8 µM) | 4 (≈ 6.46 µM) | 0.06 (≈ 0.0968 µM) | 0.25 (≈ 0.403 µM) | 2 (≈ 3.23 µM) | – | – | – | – | – | – | – | – | – | – | – | – | – | – |
| CO/N=C(\C(=O)NC1C(=O)N2C(C(=O)O)=C(COC(=O)c3ccc(NC(=O)C(N)CCN)c(O)c3)CSC12)c1csc(N)n1 (stereo not shown) [SR 44218] | 0.5 (≈ 0.771 µM) | 2 (≈ 3.08 µM) | 16 (≈ 24.7 µM) | 8 (≈ 12.3 µM) | 0.25 (≈ 0.385 µM) | 0.5 (≈ 0.771 µM) | 4 (≈ 6.17 µM) | – | – | – | – | – | – | – | – | – | – | – | – | – | – |
| CC(C)(O/N=C(\C(=O)NC1C(=O)N2C(C(=O)O)=C(COC(=O)c3ccc(NC(=O)[C@@H](N)CCCN)c(O)c3)CSC12)c1csc(N)n1)C(=O)O (stereo partly shown) [SR 44128] | 8 (≈ 10.9 µM) | 1 (≈ 1.36 µM) | 0.12 (≈ 0.163 µM) | 1 (≈ 1.36 µM) | 0.12 (≈ 0.163 µM) | 2 (≈ 2.72 µM) | 2 (≈ 2.72 µM) | 0.16 | 2 | 195 | 898 | 104 | 62.9 | 115 | 135 | 177 | 188 | 188 | 195 | 169 | concentration at 4 h ([7]; plasma, 20 mg/kg): 142 µg/mL; concentration at 5 h ([7]; plasma, 20 mg/kg): 123 µg/mL; concentration at 6 h [7, 9]: 105 µg/mL; dose excreted at 6 h ([7]; 20 mg/kg): 72% |
